This note sets out measurements from patent US10806798B2, “Compound with effects of thrombolysis, free radical scavenging and thrombus-targeting” (Shanghai Lumosa Therapeutics Co., Ltd., priority 2012, dated 2020).

Marks after values point to notes of the source that are not given here. Side chains are listed from the residue outwards. Ends that are not written are not given here.

Data set [1] has as its system rats with stroke. Description: Immediate treatment after stroke onset, neural function scores (Zealonga method, 0 no loss to 5 death). The data set is classed as in vivo, SD rats. The conditions noted are these: 0.1 μmol/kg, 24 h after awake, n = 10. On the procedure: The in vivo anti-stroke activity of the present invention was represented by neural function scores, with a lower score indicating higher activity. A 10% chloral hydrate solution (400 mg/kg) was injected intraperitoneally into SD male rats (250-300 g) for anesthesia. An open incision of 2 cm in length was longitudinally made slightly on the right to the center of the neck, and the right common carotid artery trunk, carotid external artery and carotid internal artery were dissected along the margin of the inner side of sternocleidomastoid muscles. The open incisions in the carotid internal artery and the proximal end of the common carotid artery were occluded respectively with noninvasive arterial clips. A small open incision was made across the carotid external artery, and the distal end of the carotid external artery was ligated. The arterial clip at the proximal end of the carotid external artery was released, and 10 μl blood was drawn before the proximal end of the common carotid artery was again occluded with the noninvasive arterial clip. The 10 μl blood drawn was placed in a 1 mL EP vial and kept at RT for 30 min for coagulation of blood, and then transferred into a −20° C. refrigerator for 1 h to allow coagulation. After 1 h, the blood clots were taken out, into which 1 mL saline was added, and then broken into uniform microthrombus by using a steel spatula. The microthrombus suspension was then transferred to a 1 mL injector until use. At the same time when the clip on the carotid internal artery of the rat was released, 1 mL thrombus suspension in the injector was slowly injected from the carotid external artery of the rat to its proximal end, and the suspension was injected into the brain of the rat through the carotid internal artery. Subsequently, the proximal end of the carotid external artery was ligated, the arterial clips on the carotid internal artery and the common carotid artery were released, and blood flow was restored. The jugular common vein of the rats was dissected. The vein was immediately ligated, 3 drops of penicillin was dropped at the wound site, the wound was stitched up, and the animals were allowed to come around, as the sham operation group. Or injection of urokinase in normal saline (positive control group, at a dosage of 20000 IU/kg), normal saline (blank control group, at a dosage of 3 ml/kg), TMMZ in normal saline (component control group, at a dosage of 1 μmol/kg), a thrombolytic peptide ARPAK (SEQ. ID NO. 4), GRPAK (SEQ. ID NO. 5), RPAK (SEQ. ID NO. 3) or PAK in normal saline (component control group, at a dosage of 1 μmol/kg), or one of compounds Ia-Il in normal saline (at a dosage of 0.1 μmol/kg) was carried out. 24 h after the rats were awake, the degree of damage in the neural function was evaluated by the Zealonga method. A score of 0 indicated no sign of loss in neural function, 1 indicated the front limbs on the undamaged side could not stretch out, 2 indicated walking toward the undamaged side, 3 indicated tail-chasing walking in circles toward the undamaged side, 4 indicated involuntary walking with disturbance of consciousness, and 5 indicated death.

In data set [2] the test system is NO free radicals (acetylcholine induced vasodilation). Description: NO radical scavenging: inhibition of acetylcholine induced vasodilation of aorta rings. Set-up: species or system Wistar rats. The conditions noted are these: final concentration 5×10^−6 M; n = 6. On the procedure: Male Wistar rats weighing 250 to 300 g were starved for 12 h before operation with free access to drinking water, and sacrificed by cervical dislocation. Thoracotomy was immediately carried out and thoracic aorta was taken out, connective tissues attached thereto were dissected, and vessels were cut into aorta rings with a length of 3 to 5 mm and placed into a perfusion bath. The bath contained 15 ml Krebs-Henseleit solution and was kept at a constant temperature of 37° C., into which 95% O2-5% CO2 gas was charged. The anchor to which the aorta rings were immobilized was connected to a tension transducer, and vasomotion curves were recorded on a dual-trace recorder at a paper speed of 1 mm/min. With the static tension adjusted to 1.0 g and 30 min of equilibration, norepinephrine at a final concentration of 10^−8 M was dosed to allow the aorta to contract for preexcitation. Norepinephrine was washed off, followed by 30 min of equilibration, and norepinephrine was added into the bath to a final concentration of 10^−8 M. When the contraction tension was steady at a plateau level, 20 μl normal saline (blank), a 20 μl solution of any one of compounds Ia to Il in normal saline (at a final concentration of 5×10^−6 M), or a 20 μl solution of NO free radical scavenger (1,3-dioxo-2-(4′-oxyacetoxyl-phenyl)-4,4,5,5-tetramethylimidazoline, TMMZ) in normal saline (at a final concentration of 5×10^−6 M) was added into the bath. When stabilized, a 20 μl acetylcholine in normal saline was added (at a final concentration of 10^−6 M). The NO scavenging ability of the drugs was expressed as a percentage of inhibition of acetylcholine induced vasodilation.

The subject of data set [3] is rats with stroke. Description: Successive treatments with 1 μmol/kg Ie starting 6 h after the onset of stroke (Zealonga scores). It counts as in vivo, SD rats. The method, then:
The efficacy was represented by neural function scores, and a lower score indicates higher efficacy. A 10% chloral hydrate solution was injected intraperitoneally into male SD rats at a dosage of 400 mg/kg body weight for anesthesia. A longitudinal open incision was made at the center of the neck, and the right common carotid artery trunk was dissected (about 3 cm in length). Carotid external artery branches were each dissected and ligated at the hyoid level, and the carotid internal artery was dissected at the swollen part of the neck. The open incision in the carotid internal artery and the proximal end of the common carotid artery were occluded respectively with noninvasive arterial clips, and the distal end of the carotid external artery was ligated. A catheter containing 0.5 mL thrombus suspension in normal saline was inserted in the carotid external artery trunk. At the same time when the clip on the carotid internal artery was released, the 0.5 mL thrombus suspension in normal saline in the catheter slowly flew from the carotid external artery to its proximal end, and then was injected into the arteries in brain through the carotid internal artery. Subsequently, the proximal end of the carotid artery was ligated, the arterial clips on the carotid internal artery and the common carotid artery were released, and blood flow was restored. After the wound was stitched up, 20,000 IU penicillin was intramuscularly injected for prevention from infection. After 6 h, compound Ie in normal saline (at a dosage of 1 μmol/kg, n=11), urokinase in normal saline (at a dosage of 20000 IU/kg, n=6) or tPA in normal saline (at a dosage of 3 mg/kg, n=6) was infused through the tail vein. Infusion of compound Ie in normal saline through rat tail vein was carried out once per day for 6 consecutive days, observed for 7 days. The rats were compared to themselves each day, and evaluated for the degree of damage in neural function by the Zealonga method. Alternatively, infusion of urokinase in normal saline through rat tail vein was carried out once per day for two consecutive days, the rats were compared to themselves each day, and evaluated for the degree of damage in neural function by the Zealonga method. Alternatively, infusion of tPA in normal saline through rat tail vein was carried out once per day for two consecutive days, the rats were compared to themselves each day, and evaluated for the degree of damage in neural function by the Zealonga method. A score of 0 indicated no sign of loss in neural function, 1 indicated the front limbs on the undamaged side could not stretch out, 2 indicated walking toward the undamaged side, 3 indicated tail-chasing walking in circles toward the undamaged side, 4 indicated involuntary walking with disturbance of consciousness, and 5 indicated death.

The mark [4] stands for this setting: Day 1, urokinase 20000 IU/kg once per day from 6 h after stroke onset, n=6.
[5] abbreviates: Day 2, urokinase 20000 IU/kg once per day from 6 h after stroke onset, n=6.

Take “1,3-dioxo-2-{4′-oxyacetyl-[N^ω-(Gly-Arg-Pro-Ala-Lys)-Lys-Arg-Gly-Asp-Phe]phenyl}-4,4,5,5-tetramethylimidazoline [If]”: the “Neural function scores (Mean ± SD)” value in the data set on rats with stroke [1] was 0.60 ± 0.84 ^c.

On to “1,3-dioxo-2-{4′-oxyacetyl-[N^ω-(Pro-Ala-Lys)-Lys-Arg-Gly-Asp-Val]phenyl}-4,4,5,5-tetramethylimidazoline (K([Lys-Ala-Pro])RGDV; not fully specified (N-terminus); also: 4′-oxyacetylphenyl-1,3-dioxo-4,4,5,5-tetramethylimidazoline (nitronyl nitroxide) conjugate, attachment amine not clear) [Ik]”, for which the “Percentage of inhibition (Mean ± SD %) of vasodilatation induced by acetylcholine” value in data set [2] came to 11.13%. In addition, the “Neural function scores (Mean ± SD)” value in the data set on rats with stroke [1] is given as 0.56 ± 0.53 ^c.

Regarding “1,3-dioxo-2-{4′-oxyacetyl-[N^ω-(Ala-Arg-Pro-Ala-Lys)-Lys-Arg-Gly-Asp-Ser]phenyl}-4,4,5,5-tetramethylimidazoline [Ia]”, the “Percentage of inhibition (Mean ± SD %) of vasodilatation induced by acetylcholine” value in data set [2] turned out to be 22.82%. Moreover, the “Neural function scores (Mean ± SD)” value in the data set on rats with stroke [1] is given as 1.00 ± 1.01 ^b.

In the case of “1,3-dioxo-2-{4′-oxyacetyl-[N^ω-(Gly-Arg-Pro-Ala-Lys)-Lys-Arg-Gly-Asp-Ser]phenyl}-4,4,5,5-tetramethylimidazoline”, the “Percentage of inhibition (Mean ± SD %) of vasodilatation induced by acetylcholine” value in data set [2] stood at 17.60%. The “Neural function scores (Mean ± SD)” value in the data set on rats with stroke [1] is listed as 1.22 ± 1.32 ^b.

Regarding “1,3-dioxo-2-{4′-oxyacetyl-[N^ω-(Arg-Pro-Ala-Lys)-Lys-Arg-Gly-Asp-Ser]phenyl}-4,4,5,5-tetramethylimidazoline [Ig]”, the “Percentage of inhibition (Mean ± SD %) of vasodilatation induced by acetylcholine” value in data set [2] is 24.40%. Moreover, in the data set on rats with stroke [1], the “Neural function scores (Mean ± SD)” value was 1.00 ± 1.19 ^b.

For “1,3-dioxo-2-{4′-oxyacetyl-[N^ω-(Ala-Arg-Pro-Ala-Lys)-Lys-Arg-Gly-Asp-Val]phenyl}-4,4,5,5-tetramethylimidazoline [Ib]”, the “Neural function scores (Mean ± SD)” value in the data set on rats with stroke [1] is given as 0.56 ± 1.01 ^c.

Take “1,3-dioxo-2-{4′-oxyacetyl-[N^ω-(Pro-Ala-Lys)-Lys-Arg-Gly-Asp-Ser]phenyl}-4,4,5,5-tetramethylimidazoline (K([Lys-Ala-Pro])RGDS; not fully specified (N-terminus); also: 4′-oxyacetylphenyl-1,3-dioxo-4,4,5,5-tetramethylimidazoline (nitronyl nitroxide) conjugate, attachment amine not clear) [Ij]”: in data set [2], the “Percentage of inhibition (Mean ± SD %) of vasodilatation induced by acetylcholine” value was 27.22%. The “Neural function scores (Mean ± SD)” value in the data set with rats with stroke [1] is 0.90 ± 1.10 ^c.

On to “1,3-dioxo-2-{4′-oxyacetyl-[N^ω-(Arg-Pro-Ala-Lys)-Lys-Arg-Gly-Asp-Val]phenyl}-4,4,5,5-tetramethylimidazoline [Ih]”, for which the “Neural function scores (Mean ± SD)” value with rats with stroke [1] is 1.33 ± 1.22 ^b.

As for “1,3-dioxo-2-{4′-oxyacetyl-[N^ω-(Ala-Arg-Pro-Ala-Lys)-Lys-Arg-Gly-Asp-Phe]phenyl}-4,4,5,5-tetramethylimidazoline [Ic]”, the “Percentage of inhibition (Mean ± SD %) of vasodilatation induced by acetylcholine” value in data set [2] came to 21.78%. The “Neural function scores (Mean ± SD)” value with rats with stroke [1] was 0.89 ± 1.36 ^c.

Take “1,3-dioxo-2-{4′-oxyacetyl-[N^ω-(Pro-Ala-Lys)-Lys-Arg-Gly-Asp-Phe]phenyl}-4,4,5,5-tetramethylimidazoline (K([Lys-Ala-Pro])RGDF; not fully specified (N-terminus); also: 4′-oxyacetylphenyl-1,3-dioxo-4,4,5,5-tetramethylimidazoline (nitronyl nitroxide) conjugate, attachment amine not clear) [Il]”: the “Percentage of inhibition (Mean ± SD %) of vasodilatation induced by acetylcholine” value in data set [2] amounted to 22.62%. Moreover, in the data set with rats with stroke [1], the “Neural function scores (Mean ± SD)” value was 0.50 ± 0.53 ^c.

In the case of “1,3-dioxo-2-{4′-oxyacetyl-[N^ω-(Arg-Pro-Ala-Lys)-Lys-Arg-Gly-Asp-Phe]phenyl}-4,4,5,5-tetramethylimidazoline [Ii]”, the “Percentage of inhibition (Mean ± SD %) of vasodilatation induced by acetylcholine” value in data set [2] is given as 13.75%. Besides, the “Neural function scores (Mean ± SD)” value with rats with stroke [1] is 0.87 ± 1.05 ^c.

For urokinase, in the data set with rats with stroke [3] (setting [4]), the “number of rats scored Score 1” value stood at 1 rat rats, the “number of rats scored Score 2” value was determined as 1 rat rats and the “number of rats scored Score 3” value is given as 4 rats. In the data set with rats with stroke [3] (setting [5]), the “number of rats scored Score 0” value was 1 rat rats and the “number of rats scored Score 2” value turned out to be 1 rat rats. This substance also yielded a rats died with rats with stroke [3] (out of 6 rats, within 24 h, urokinase 20000 IU/kg each day from 6 h after stroke onset) of 4. Besides, in the data set on rats with stroke [3] (urokinase 20000 IU/kg each day from 6 h after stroke onset), the “autopsy on the dead rats” value is recorded as “hemorrhage in internal organs, particularly severe hemorrhage in lungs”.
